In the supplement of paper PMC6470124:

How the values were obtained:
[1] = LC retention time (Atlantis T3, 5-95% MeOH gradient, 0.1% formic acid); higher = more retained / less polar
Procedure, shortened: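 Retention times were recorded for reference standards on a polar reversed-phase C18 column. The standards were of purity ≥ 95%, and the Atlantis T3 column (3 × 150 mm, 3 μm) was run at 0.3 mL/min with a gradient from 5 to 95% methanol over 17.5 min, both water and methanol containing 0.1% formic acid. Detection used high-resolution tandem mass spectrometry on a QExactive Plus, with positive and negative electrospray in separate runs, and peaks were integrated in TraceFinder (5 ppm tolerance, at least three points per peak) before being checked by hand.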

[2] = absolute recovery over vacuum-assisted evaporative concentration; higher = better recovery; conditions: enrichment method: VEC
Procedure, shortened: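 Samples of influent (6 mL), effluent (15 mL) and surface or nanopure water (60 mL) were spiked with standards before or after concentration, or left unspiked, at 200 ng/L (nanopure/surface) or 1000 ng/L (wastewater), adjusted by class and compound. Concentration was by evaporation at 55 °C and 20 mbar to about 0.3 mL, followed by adjustment to 0.4 mL and centrifugation. Internal standards were then added for LC-HRMS/MS analysis. Absolute recovery was (response ratio pre − unspiked)/(post − unspiked) × 100, using averages of ≥ 2 replicates.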

[3] = absolute recovery over mixed-bed multilayer solid-phase extraction; higher = better recovery; conditions: enrichment method: SPE
Procedure, shortened: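 Absolute recovery was calculated by comparing background-corrected response ratios of samples spiked before extraction with those spiked after it, averaged over at least two replicates. Wastewater (100–250 mL, adjusted to pH 6.5 and glass-fibre filtered) or 1000 mL of unfiltered nanopure water was passed through a three-layer mixed-bed cartridge and eluted with basic and then acidic ethyl acetate/methanol. Standards were added before extraction, after extraction, or not at all, at 200 ng/L in water or 1000 ng/L in wastewater, with exceptions for some classes. Internal standards were added afterwards, and samples were analysed by liquid chromatography with high-resolution tandem mass spectrometry in both ionisation modes.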

Row | Structure (SMILES) | LC retention time [1] [min] | absolute recovery ([2]; wastewater effluent) [%] | absolute recovery ([3]; nanopure water) [%] | absolute recovery ([3]; surface water) [%] | absolute recovery ([3]; wastewater effluent) [%] | absolute recovery ([2]; wastewater influent) [%] | absolute recovery ([3]; wastewater influent) [%]
1 | OCC(O)C[NH+]1CCN(c2ccccc2)CC1 (stereo not drawn) [Dropropizine] | 9.49 | 106 | 108 | 108 | 99.5 | 98.7 | 86.7
2 | CCC(CO)NCC[NH2+]C(CC)CO (stereo not drawn) [Ethambutol] | 3.04 | 102 | 75.8 | 64.3 | 66.3 | 124 | 66.2
3 | COCC(C)N(C(=O)CCl)c1c(C)csc1C (stereo not drawn) [Dimethenamid] | 19.6 | 96 | 94.4 | 92.8 | 91.7 | 92.1 | 92.1
4 | NC(=O)N1c2ccccc2C=Cc2ccccc21 [Carbamazepin] | 17.6 | 104 | 99 | 97.8 | 93.5 | 98.2 | 93.2
5 | Clc1ccc(C(c2ccccc2)N2CC[NH2+]CC2)cc1 (stereo not drawn) [1-[(4-Chlorophenyl)phenylmethyl]piperazine] | 16.2 | 86.4 | 82.7 | 84.1 | 85.4 | 116 | 122
6 | Fc1ccc(C2(Cn3cncn3)OC2c2ccccc2Cl)cc1 (stereo not drawn) [Epoxiconazol] | 20.3 | 103 | 100 | 95.4 | 93.9 | 99.3 | 92.7
7 | Nc1nc(N)[nH+]c(NC2CC2)n1 [Cyromazin] | 7.27 | 101 | 83.7 | – | 88.1 | 104 | 91.5
8 | OC(Cc1ccccc1Cl)(Cn1[nH]cnc1=S)C1(Cl)CC1 (stereo not drawn) [Prothioconazole] | 21.2 | 96.6 | – | 94.5 | 41.8 | 39.8 | 14.7
9 | O=P1(NCCCl)OCCCN1CCCl (stereo not drawn) [Ifosfamid] | 15.5 | 102 | 109 | 99.4 | 92.9 | 99.2 | 89.1
10 | O=C([O-])C(c1ccccc1)C1CCCC[NH2+]1 (stereo not drawn) [Ritalinic-acid] | 12.3 | 110 | 104 | 77.4 | 88.9 | 104 | 79.8
11 | NS(=O)(=O)c1cc2c(cc1Cl)NCNS2(=O)=O [Hydrochlorothiazid] | 10.2 | 104 | 96.7 | 98.2 | 89.1 | 100 | 91.7
12 | CC(Cc1ccc(C(C)(C)C)cc1)C[NH+]1CCCCC1 (stereo not drawn) [Fenpropidin] | 16.4 | 146 | – | 107 | 94.1 | 46.3 | 67.3
13 | CC1COc2c(N3CCN(C)CC3)c(F)cc3c(=O)c(C(=O)[O-])cn1c23 (stereo not drawn) [Levofloxacin] | 11.2 | 103 | 88.7 | 108 | 93.3 | 135 | 114
14 | COc1ccc(C(C[NH3+])C2(O)CCCCC2)cc1 (stereo not drawn) [N-N-Didesvenlafaxin] | 14.1 | 105 | 40.5 | 50.1 | 44.7 | 91 | 66.6
15 | N#Cc1cc(Br)c([O-])c(Br)c1 [Bromoxynil] | 18.6 | 101 | 92.1 | 82.5 | 86.9 | 90.3 | 108
16 | CCOP(=S)(OCC)Oc1cc(C)nc(C(C)C)n1 [Diazinon] | 21.1 | 27.1 | 77.6 | 86.9 | 80.5 | 18.9 | 82.8
17 | CC(C)c1ccc(N)cc1 [4-Isopropylanilin] | 10.4 | 93.8 | 95.5 | 80.7 | 80.1 | 96.6 | 84.8
18 | COc1cc(OC)nc(NC(=O)[N-]S(=O)(=O)c2ncccc2C(=O)N(C)C)n1 [Nicosulfuron] | 16.9 | 103 | 95.8 | 97.3 | 96.2 | 102 | 95.7
19 | Oc1cc(Cl)ccc1Oc1ccc(Cl)cc1Cl [Triclosan] | 21.9 | – | 97.2 | 90.7 | 90 | 117 | 92.3

Row | Structure (SMILES) | LC retention time [1] [min] | absolute recovery ([2]; wastewater effluent) [%] | absolute recovery ([3]; nanopure water) [%] | absolute recovery ([3]; surface water) [%] | absolute recovery ([3]; wastewater effluent) [%] | absolute recovery ([2]; wastewater influent) [%] | absolute recovery ([3]; wastewater influent) [%]
20 | N#Cc1nn(-c2c(Cl)cc(C(F)(F)F)cc2Cl)c(N)c1SC(F)(F)F [Fipronil-sulfid] | 20.5 | 118 | 105 | 107 | 89.4 | 137 | 121
21 | N#Cc1c(Cl)c(Cl)c([O-])c(C(=[NH2+])[O-])c1Cl | 16.8 | 109 | 101 | 99.6 | 94.8 | 105 | –
22 | COC(=O)c1sccc1S(=O)(=O)[N-]C(=O)Nc1nc(C)nc(OC)n1 [Thifensulfuron-methyl] | 16.7 | 104 | 98.9 | 95 | 93.4 | 114 | 92.3
23 | CNC(=O)ON=CC(C)(C)SC [Aldicarb] | 16 | 99.1 | 88.2 | – | – | 91.7 | –
24 | CCOC1Oc2ccc(OS(C)(=O)=O)cc2C1(C)C (stereo not drawn) [Ethofumesat] | 19.2 | 105 | 98.7 | 102 | 96.1 | 94 | 92
25 | CN1C(=O)CN=C(c2ccccc2)c2cc(Cl)ccc21 [Diazepam] | 19.5 | 105 | 97.6 | 94.9 | 93.6 | 99.2 | 95.7
26 | CC(C)N(Cc1ccccc1)C(=O)C(C)(C)C [Tebutam] | 20.5 | 52.3 | 85.7 | 88.7 | 81.3 | 46.1 | 89.5
27 | CC(C)CC(C[NH3+])CC(=O)[O-] (racemic) [Pregabalin-rac] | 10.3 | 108 | 16.3 | 2 | 2.6 | 101 | –
28 | Cc1ccc(NC(=O)N(C)C)cc1Cl [Chlortoluron] | 18.2 | 107 | 98 | 101 | 93 | 102 | 94.8
29 | COc1ccc2c3c1OC1C(O)C=CC4C(C2)[NH+](C)CCC341 (stereo not drawn) [Codein] | 9.16 | 104 | 90.2 | 92.6 | 91.7 | 102 | 93
30 | c1ccc(C2CN3CCSC3=[NH+]2)cc1 (stereo not drawn) [Levamisol] | 9.66 | 104 | 84.8 | 81.9 | 83.8 | 98.7 | 82
31 | CNC(=O)CSP(=S)(OC)OC [Dimethoat] | 14.4 | 102 | 93.4 | 90.7 | 93 | 103 | 92.3
32 | COc1ccc2c3c1OC1C(O)CCC4C(C2)[NH+](C)CCC341 (stereo not drawn) [Dihydrocodeine] | 9.1 | 108 | 98.5 | 107 | 94.1 | 100 | 97.7
33 | C[NH2+]C(C)C(O)c1ccccc1 (stereo not drawn) [Ephedrin] | 9.53 | 107 | 93.4 | 93.3 | 89.3 | 99 | 89.4
34 | Cc1cc(C)nc(NC(=O)[N-]S(=O)(=O)c2ccccc2C(=O)OC2COC2)n1 [Oxasulfuron] | 16.5 | 111 | 107 | 93.3 | 93 | 103 | 83.6
35 | CC1COC(=O)c2cc3c(cc21)C(C)(C)C(C)C3(C)C (stereo not drawn) [Galaxolidon] | 22.2 | 61.8 | 103 | 104 | 86.1 | 63.2 | 108
36 | C[NH+]=CNc1ccc(C)cc1C [N-(2-4-dimethylphenyl)-N-methylformamidine] | 11.1 | 76.9 | 35.1 | 27.7 | 47.9 | 79.1 | 52.5
37 | Nc1c(Cl)c(F)nc(OCC(=O)[O-])c1Cl [Fluroxypyr (free acid)] | 17.1 | 104 | 97 | 95.8 | 91.7 | 95.6 | 89.2

Second part, led by results:

Row | LC retention time [1] [min] | absolute recovery ([2]; wastewater effluent) [%] | absolute recovery ([3]; nanopure water) [%] | absolute recovery ([3]; surface water) [%] | absolute recovery ([3]; wastewater effluent) [%] | Structure (SMILES) | absolute recovery ([2]; wastewater influent) [%] | absolute recovery ([3]; wastewater influent) [%]
38 | 6.08 | 83.5 | 72.3 | 74.2 | 67.2 | CNC(=C[N+](=O)[O-])NCCS(=O)Cc1ccc(C[NH+](C)C)o1 (stereo not drawn) [Ranitidin-S-oxid] | 142 | 81.4
39 | 19.9 | 104 | 95.5 | 102 | 102 | COCCN(C(=O)CS(=O)(=O)[O-])c1c(C)cccc1C [Dimethachlor-ESA] | 109 | 84.4
40 | 18.8 | 102 | 93.6 | 93.1 | 90.1 | CCOC(=O)C1CC(=O)C(=C([O-])C2CC2)C(=O)C1 (stereo not drawn) [Trinexapac-ethyl] | 93.4 | 93.2
41 | 6.53 | 87.6 | 65.5 | 70.3 | 65.2 | NC(=O)Cc1ccc(OCC(O)C[NH3+])cc1 (stereo not drawn) [Atenolol-desisopropyl] | – | 52.7
42 | 15.5 | 74.1 | 84.7 | 77.4 | 84.9 | CC(=O)N(C)c1ccccc1 [N-Methylacetanilid] | 81.1 | 144
43 | 17.1 | 108 | 95.6 | 97.5 | 92.4 | Cc1cccc(C)c1N(Cn1cccn1)C(=O)C(=O)[O-] [Metazachlor-OXA] | 103 | 87.4
44 | 15.7 | 102 | 87.3 | 84 | 85.4 | Cc1cc(C(C)(C)C)cc(C)c1CC1=[NH+]CCN1 [Xylometazolin] | 106 | 97.2
45 | 15.8 | 38.8 | 40.5 | 19.3 | 28.1 | COc1cccc2c1C(=O)c1c(O)c3c(c(O)c1C2=O)CC(O)(C(=O)CO)CC3OC1CC([NH3+])C(O)C(C)O1 (stereo not drawn) [Doxorubicin] | 45.5 | 53.3
46 | 17.5 | 44.9 | 71.7 | 87.9 | 84.1 | CCCCc1oc2ccc(NS(C)(=O)=O)cc2c1C(=O)c1ccc(OCCC[NH+](CCCC)CCCC)cc1 [Dronedaron] | 101 | –
47 | 7.84 | 97.6 | 64.8 | 65.4 | 56.8 | CC(=O)N(C)c1ccc(N)cc1 [N-(4-Aminophenyl)-N-methyl-acetamid] | 85 | 67.5
48 | 22 | 90.5 | 63.9 | 98 | 75.8 | Cc1cccc(N(C)C(=S)Oc2ccc3ccccc3c2)c1 [Tolnaftat] | 92.4 | 73.4
49 | 17.8 | 105 | 96 | 73.3 | 93.5 | CC(C)N(C(=O)C(=O)[O-])c1ccccc1 [Propachlor-OXA] | 100 | 102
50 | 8.38 | 108 | 93.9 | 77.6 | 77.2 | O=S(=O)([O-])c1ccc2ccc(S(=O)(=O)[O-])cc2c1 [2-7-Naphthalenedisulfonic-acid] | 112 | 88.8
51 | 18.9 | 103 | 99.6 | 97.1 | 100 | COc1c(C)c2c(c(O)c1CC=C(C)CCC(=O)[O-])C(=O)OC2 [Mycophenolic-Acid] | – | –
52 | 19.3 | 105 | 96.4 | 94.1 | 93.9 | CC(C)(Oc1ccc(Cl)cc1)C(=O)[O-] [Clofibric-acid] | 103 | 92.9
53 | 16.1 | 110 | 84.5 | 106 | 96.3 | C[NH+](C)CCC=C1c2ccccc2CCc2ccccc21 [Amitriptyline E] | 108 | 58.1
